Data published in patent US7566787B2, “Small molecule cyclin D1 ablative agents” (The Ohio State University, priority 2004, dated 2009).
Like-named read-outs stand apart in the source and are kept apart here.

Assays:
MCF-7 cells = assay: MTT cell viability assay; format: cell-based; conditions: Homo sapiens
Description: Cell viability analysis. The effect of individual test agents on cell viability was assessed by using the MTT [3-(4,5-dimethylthiazol-2-yl)-2,5-diphenyl-2H-tetrazolium bromide] assay in six replicates. Cells were seeded and incubated in 96-well, flat-bottomed plates in DMEM-F12 media with 10% FBS for 24 h, and were exposed to various concentrations of test agents dissolved in DMSO (final DMSO concentration, 0.1%) in 5% FBS-supplemented DMEM-F12 medium. Controls received DMSO vehicle at a concentration equal to that of drug-treated cells. The medium was removed, replaced by 200 μl of 0.5 mg/ml of MTT in 10% FBS-containing RPMI-1640 medium, and cells were incubated in the CO2 incubator at 37° C. for 2 h. Supernatants were removed from the wells, and the reduced MTT dye was solubilized in 200 μl/well DMSO. Absorbance at 570 nm was determined on a plate reader.

cyclin D1 = assay: Western blot analysis of cyclin D1 expression in MCF-7 cells; format: cell-based, human; conditions: for concentration at which cyclin D1 levels are reduced: FIG. 8B; for minimum concentration required for the complete ablation of cyclin D1: 24 h, 5% FBS
Description: (§1) Western Blot Analysis. MCF-7 or MDA-MB-231 cells were seeded in 10% FBS-containing DMEM-F-12 for 24 h and treated with various agents as indicated. After individual treatments for 24 h, both the incubation medium and adherent cells in T-25 or T-75 flasks were scraped and collected by centrifugation at 2,000×g for 10 min. The pellets were recovered, placed on ice, and triturated with 20 to 50 μl of a chilled lysis buffer (M-PER® Mammalian Protein Extraction Reagent, Pierce, Rockford, Ill.) to which was added 1% protease inhibitor cocktail (set III, EMD Biosciences, Inc. San Diego, Calif.). After a 30 min-incubation on ice, the mixture was centrifuge at 16,100×g for 3 min. Two μl of the suspension was taken for protein analysis using the Bradford assay kit (Bio-Rad, Hercules, Calif.). To the remaining solution was added the same volume of 2× SDS-PAGE sample loading buffer (100 mM Tris-HCl, pH 6.8, 4% SDS, 5% β-mercaptoethanol 20% glycerol, and 0.1% bromophenol blue). The mixture was boiled for 10 min. Equal amounts of proteins were loaded onto 10% SDS-PAGE gels. After electrophoresis, protein bands were transferred to nitrocellulose membranes in a semi-dry transfer cell. The transblotted membrane was blocking with TBST [Tris-buffered saline (TBS) containing 0.1% Tween 20] containing 5% nonfat milk for 90 min, and the membrane was incubated with the appropriate primary antibody in TBST-5% nonfat milk at 4° C. overnight. After washing three times with TBST for a total of 45 min, the transblotted membrane was incubated with goat anti-rabbit or anti-mouse IgG-horseradish peroxidase conjugates (diluted 1:1000) for 1 h at room temperature and washed four times with TBST for a total of 1 h. The immunoblots were visualized by enhanced chemiluminescence.

PPARγ = molecular target: T1, PPARγ (Homo sapiens, UniProt P37231); assay: Analysis of PPARγ activation (PPARγ transcription factor ELISA, MCF-7 nuclear extracts); format: cell-based; conditions: 10 μM, 48 h, MCF-7 cells
T1 construct: endogenous in cells; host or cells: MCF-7 (nuclear extracts)
T1 sequence (P37231 1-505): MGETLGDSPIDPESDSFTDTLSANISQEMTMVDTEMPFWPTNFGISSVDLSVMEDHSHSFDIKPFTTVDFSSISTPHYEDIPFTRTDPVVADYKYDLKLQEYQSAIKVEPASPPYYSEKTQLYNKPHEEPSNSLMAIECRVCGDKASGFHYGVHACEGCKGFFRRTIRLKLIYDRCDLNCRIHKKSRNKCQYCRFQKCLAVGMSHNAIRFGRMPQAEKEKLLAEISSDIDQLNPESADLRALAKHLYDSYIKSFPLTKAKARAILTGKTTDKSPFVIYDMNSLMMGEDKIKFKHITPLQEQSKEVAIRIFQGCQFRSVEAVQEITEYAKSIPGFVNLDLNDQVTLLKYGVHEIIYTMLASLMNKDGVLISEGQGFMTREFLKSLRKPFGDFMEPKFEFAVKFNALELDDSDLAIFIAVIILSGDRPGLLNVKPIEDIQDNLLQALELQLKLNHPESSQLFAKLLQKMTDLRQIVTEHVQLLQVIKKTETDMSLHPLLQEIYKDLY
Description: Analysis of PPARγ activation. The analysis was carried out by using a PPARγ transcription factor ELISA kit (Active Motif, Carlsbad, Calif.), in which an oligonucleotide containing the peroxisome proliferator response element (PPRE) was immobilized onto a 96-well plate. PPARs contained in nuclear extracts bind specifically to this oligonucleotide and are detected through an antibody directed against PPARγ. In brief, MCF-7 cells were cultured in RPMI 1640 medium supplemented with 10% FBS, and treated with DMSO vehicle or individual test agents, 10 μM each, for 48 h. Cells were collected, and nuclear extracts were prepared with a Nuclear Extract kit (Active Motif, Carlsbad, Calif.). Nuclear extracts of the same protein concentration from individual treatments were subject to the PPARγ transcription factor ELISA according to the manufacturer's instruction.

cyclin D1 gene mRNA = assay: RT-PCR analysis of mRNA transcripts of cyclin D1 gene in MCF-7 cells; format: cell-based, human; conditions: 24 h exposure, 40 μM TG, 30 μM Δ2-TG
Description: Reverse transcriptase (RT-) PCR analysis of mRNA transcripts of cyclin D1 gene. MCF7 cells were subject to total RNA isolation by using RNeasy mini kit (Qiagen, Valencia, Calif.). RNA concentrations and quality were assessed spectrophotometrically by measuring absorption at 260 nm. Aliquots of 20 μg of total RNA from each sample was reverse transcribed to cDNA using Omniscript RT Kit (Qiagen) according to manufacturer's instructions. The primers used were as follows: cyclin D1, forward, 5′-[…]-3′, reverse, 5′-[…]-3′; β-actin, forward, 5′-[…]-3′, reverse, 5′-[…]-3′. The reaction conditions were as follows: for cyclin D1 (a) initial denaturation at 95° C. for 5 min; (b) 34 cycles of amplification (95° C. for 1 min, 65° C. for 1 min 45 s, and 72° C. for 1 min); and (c) a final extension step of 10 min at 72° C.; for β-actin (a) initial denaturation at 95° C. for 3 min; (b) 40 cycles of amplification (95° C. for 30 s, 58° C. for 20 s, and 72° C. for 45 s); and (c) a final extension step of 10 min at 72° C.

[1] = tested on: cyclins D2, D3, A, B, and E, and cyclin-dependent kinases (CDKs) 2 and 4; assay: Western blot of other cyclins and CDKs in MCF-7 cells; format: cell-based, human; conditions: different doses, 24 h
Description: as §1, with “The transblotted membrane was blocking with TBST [Tris-buffered saline (TBS) containing 0.1% Tween 20] containing 5% nonfat milk for 90 min, and the membrane was incubated with the appropriate primary antibody in TBST-5% nonfat milk at 4° C. overnight. After washing three times with TBST for a total of 45 min, the transblotted membrane was incubated with goat anti-rabbit or anti-mouse IgG-horseradish peroxidase conjugates (diluted 1:1000) for 1 h at room temperature and washed four times with TBST for a total of 1 h. The immunoblots were visualized by enhanced chemiluminescence.” left out

ubiquitinated cyclin D1 = assay: Coimmunoprecipitation/Western blot of cyclin D1 ubiquitination in MCF-7 cells; format: cell-based, human; conditions: 30 μM TG or 20 μM Δ2-TG, 20 h
Description: Coimmunoprecipitation/Western Blot. MCF-7 cells were cultured in 10% FBS-containing DMEM-F-12 in 75-mm plates for 24 h. Cell were treated with DMSO vehicle, 30 μM TG, or 20 μM Δ2-TG in 5% FBS-containing DMEM-F12 medium for another 20 hours. Cells were rinsed with PBS at room temperature, scraped off the flask, transferred into centrifuge tubes, and centrifuged at 2,000×g for 10 min to pellet the cells. […] These cell lysates were treated with 100 μl of protein A-agarose bead slurry, followed by brief centrifugation, to remove nonspecific binding proteins. Equal amounts of proteins from these lysates, as determined by the Bradford assay, were mixed with anti-cyclin D1 in an orbital shaker at 23° C. for 2 h, followed by 100 μl of protein A-agarose bead slurry at 4° C. for 12 h. The immunocomplex was collected by brief centrifugation, washed 4 times with 800 μl of ice-cold RIPA buffer, and suspended in 50 μl of the aforementioned 2× SDS sample loading buffer. The suspension was boiled for 10 min, cooled, and briefly centrifuged to remove the beads. Western blot analysis was performed with anti-cyclin D1 or anti-ubiquitin as described above.

GSK-3β = assay: Western blot of GSK-3β phosphorylation in MCF-7 cells; format: cell-based, human; conditions: different doses
Description: as §1, with “The transblotted membrane was blocking with TBST [Tris-buffered saline (TBS) containing 0.1% Tween 20] containing 5% nonfat milk for 90 min, and the membrane was incubated with the appropriate primary antibody in TBST-5% nonfat milk at 4° C. overnight. After washing three times with TBST for a total of 45 min, the transblotted membrane was incubated with goat anti-rabbit or anti-mouse IgG-horseradish peroxidase conjugates (diluted 1:1000) for 1 h at room temperature and washed four times with TBST for a total of 1 h. The immunoblots were visualized by enhanced chemiluminescence.” left out

ERα = assay: Western blot analysis of ERα expression in MCF-7 cells; format: cell-based, human; conditions: 24 h
Description: as §1, with “The transblotted membrane was blocking with TBST [Tris-buffered saline (TBS) containing 0.1% Tween 20] containing 5% nonfat milk for 90 min, and the membrane was incubated with the appropriate primary antibody in TBST-5% nonfat milk at 4° C. overnight. After washing three times with TBST for a total of 45 min, the transblotted membrane was incubated with goat anti-rabbit or anti-mouse IgG-horseradish peroxidase conjugates (diluted 1:1000) for 1 h at room temperature and washed four times with TBST for a total of 1 h. The immunoblots were visualized by enhanced chemiluminescence.” left out

[2] = MCF7, 24 h, 5% FBS, MTT, FIG. 8D, read-out: IC50 in inhibiting MCF-7 cell proliferation
[3] = MCF7, cell viability data, read-out: IC50 for MTT

IC50 (MCF-7 cells; [2])	IC50 (MCF-7 cells; [3])	IC50 (cyclin D1; western blot data, read-out: IC50 for WB)	PPARγ activation (PPARγ)	Structure (SMILES)	potency in ablating cyclin D1 relative to Δ2-TG (cyclin D1)	concentration at which cyclin D1 levels are reduced (cyclin D1)	time of complete ablation of cyclin D1 (cyclin D1; 40 μM TG, 30 μM Δ2-TG)	minimum concentration required for the complete ablation of cyclin D1 (cyclin D1)	mRNA level of cyclin D1 (cyclin D1 gene mRNA)	expression level of cyclin D2 and CDK4 [1]	expression level of the other cyclins and CDKs (D3, A, B, E, CDK2) [1]	extent of ubiquitination of cyclin D1 (ubiquitinated cyclin D1)	GSK-3β phosphorylation level (GSK-3β)	effect on ERα expression (ERα)
8 µM	9 µM	3 µM	devoid of activity	C=CCOc1c(C)c(C)c2c(c1C)CCC(C)(COc1ccc(/C=C3\SC(=O)NC3=O)cc1)O2 (stereo not shown) [TG-6, 5-[4-(6-allyoxy-2,5,7,8-tetramethyl-chroman-2-yl-methoxy)-benzylidene]-2,4-thiazolidinedione]	an-order-of-magnitude higher	≥ 2.5 µM	–	–	–	–	–	–	–	–
55 µM	57 µM	–	inactive	Cc1c(C)c2c(c(C)c1O)CCC(C)(COc1ccc(/C=C3\SC(=O)NC3=O)cc1)O2 (stereo not shown) [Δ2-TG, 5-[4-(6-hydroxy-2,5,7,8-tetramethyl-chroman-2-yl-methoxy)-benzylidene]-2,4-thiazolidinedione]	–	≥ 20 µM	24 h	30 µM	remained unaltered	slight decrease	no appreciable effect	increased	remained unaltered	able to reduce
–	70 µM	–	inactive	CC1(COc2ccc(/C=C3\SC(=O)NC3=O)cc2)CCCCC1 [Δ2-CG, 5-[4-(1-methyl-cyclohexylmethoxy)-benzylidene]-thiazolidine-2,4-dione]	–	–	–	30 µM	–	–	–	–	–	able to reduce
